Like-named read-outs stand apart in the source and are kept apart here.
What was measured:
[1] = SRA737 plasma and tumor concentrations in HT29 xenograft model; format: in vivo, mice; conditions: mouse, plasma, oral, read-out: plasma concentration with anti-tumor activity in preclinical efficacy models
Protocol: The effect of SRA737 on Gemcitabine induced CHK1 S296 autophosphorylation was assessed as described in Walton et al. (Oncotarget. 2016 January 19; 7(3): 2329-2342), herein incorporated by reference for all it teaches. Briefly, mice bearing HT29 tumor xenografts were administered (i) vehicle control or (ii) gemcitabine (100 mg/kg in saline, IV) or (iii) a combination of SRA737 (12.5, 25, 50 or 100 mg/kg in DTPW, oral) and gemcitabine (100 mg/kg) with SRA737 administered 24 hours following gemcitabine administration (n=3 per time point per treatment). […] Exposure in the tumor was greater than 10-fold higher than in plasma. The circulating plasma concentration at this 24-hour timepoint corresponded to a free drug concentration of approximately 6 nM (2 ng/mL) based on plasma protein binding in mice of 94%.

Single dose PK, mouse = format: in vivo; conditions: Mouse oral 10 mg/kg single dose
Description: Several studies have been conducted to evaluate the PK properties of SRA737, such as the absorption (in vitro permeability assays and in vivo PK following IV and oral administration), distribution (in vivo tissue distribution and in vitro plasma protein binding) and metabolism (in vitro hepatocyte and CYP inhibition and induction studies) of SRA737.
(§1) The PK of SRA737 have been determined in the mouse, rat, dog and monkey following oral and IV administration (Table 3). […] An acceptable terminal elimination t1/2 was also observed in each species. […] The plasma protein binding of SRA737 at 1 and 10 μM was examined in mouse, minipig, monkey and human plasma using ultracentrifugation and in dog plasma (10 μM) using rapid equilibrium dialysis.

plasma protein = assay: Plasma protein binding, ultracentrifugation, monkey plasma; format: in vitro ADME
Protocol: as §1

[2] = system: cryopreserved hepatocytes; assay: Stability and metabolites in cryopreserved human hepatocytes; format: in vitro ADME
Protocol: The formation of SRA737-related metabolites was determined in cryopreserved hepatocytes from human, mouse, rat, dog, minipig and monkey samples after incubation with SRA737 at a nominal concentration of 10 μM for up to 4 hours. […] In the human hepatocyte preparation, approximately 67% of the parent remained after 4 hours of incubation compared to 75% and 7% in the rat and minipig preparations, respectively. Eight human SRA737 metabolites were observed. All SRA737 metabolites formed by human hepatocytes were also formed by monkey hepatocytes. Six metabolites were present at equal or greater abundance in the monkey.

[3] = Excretion in urine and feces, rats; format: in vivo; conditions: rat, over 24 hours
Protocol: The excretion of SRA737 has been studied in mice and rats administered SRA737 at either 5 mg/kg IV or 10 mg/kg orally. Urine and feces were collected for a 24-hour period after dosing. In mice, renal excretion of intact SRA737 was consistently low (less than 10% of dose) after both oral and IV administration. Following IV administration of SRA737, less than 8% of the dose was recovered as intact drug in the feces while after oral administration this figure was less than 3%. Excretion of intact SRA737 was lower in the rat than in the mouse with <1% of dose excreted renally over 24 hours and less than 1.5% of dose excreted into the feces over 24 hours.

CYP1A2 = assay: CYP induction in vitro; format: in vitro ADME; conditions: positive control omeprazole, minimal, concentration dependent
[4] = Three-cycle combination toxicity study with gemcitabine and cisplatin; format: in vivo, mouse; conditions: mice; SRA737 with IV gemcitabine and cisplatin, intermittent schedule over 18 days; high dose triplet group
Description: Clinical combination of SRA737 and gemcitabine in some cases therefore elicited exacerbated hematological and GI toxicities.

[5] = SRA737 monotherapy clinical study (SRA737-01), safety and tolerability; format: in vivo
Protocol: A Phase 1 clinical trial was conducted in ‘all comers,’ i.e. no genetic selection was performed, to establish safety, tolerability and pharmacokinetics (“Dose Escalation Phase”). Cohorts consisting initially of a single subject received escalating doses of SRA737, starting in Cohort 1 with 20 mg/day administered orally on a continuous daily dosing schedule in 28 day cycles. the dose was escalated until the maximum tolerated dose (MTD) was identified.
In the Dose Escalation Phase, 18 subjects received SRA737 in 9 dose level cohorts, from 20 to 1300 mg QD; median treatment duration 62.5 days (range 1 to 226). […] Two of 3 subjects experienced DLTs at the 1300 mg once daily dose, each being an inability to receive 75% of the planned SRA737 dose due to GI intolerability, with the individual GI effects being low grade. […] A cohort receiving 500 mg twice daily was added to determine if a twice daily dosing schedule can improve GI tolerability, given the half-life of SRA737 is approximately 10 hours. One of 6 subjects experienced DLTs in the 500 mg twice daily cohort; this was an inability to receive 75% of the planned SRA737 dose due to grade 4 thrombocytopenia with grade 3 neutropenia and anemia.
A Dose Escalation phase employed an accelerated titration design starting at 20 mg SRA737, administered QD orally in 28-day cycles. Incremental dose escalations in single-subject cohorts were followed by a rolling-6 design once SRA737-related ≥Grade 2 toxicity was observed during Cycle 1.
Dose limiting toxicities (DLTs) were assessed following a pharmacokinetic (PK) lead-in dose, and throughout Cycle 1 of treatment, and were defined as adverse events highly probably or probably related to SRA737: grade ≥4 neutropenia or thrombocytopenia lasting >7 days, grade ≥3 febrile neutropenia or thrombocytopenia with bleeding, grade ≥3 non-hematologic toxicity, or the inability to receive ≥75% of the planned SRA737 dose in Cycle 1 due to drug-related toxicity.

SMILES: N#Cc1cnc(Nc2cc(NCC3CNCCO3)c(C(F)(F)F)cn2)cn1 (centres unmarked) [SRA737, 5-[[4-[[morpholin-2-yl]methylamino]-5-(trifluoromethyl)-2-pyridyl]amino]pyrazine-2-carbonitrile]
- concentration at 24 h ([1]; equivalent of 100 nM): ~37.9 ng/mL
- concentration at 24 h ([1]; mice, sustained for 24 hours, PK/PD benchmark): 100 nM
- Foral (Single dose PK, mouse): 105%
- Percentage Bound (plasma protein; 1 μM): 88.8%
- Percentage Free (plasma protein; 1 μM): 11.2%
- Percentage Bound (plasma protein; 10 μM): 85.8%
- Percentage Free (plasma protein; 10 μM): 14.2%
- number of human SRA737 metabolites observed [2]: Eight
- parent remaining ([2]; 10 μM, after 4 hours of incubation): approximately 67%
- intact SRA737 excreted into the feces [3]: less than 1.5 % of dose
- intact SRA737 excreted renally [3]: < 1 % of dose
- induction of CYP1A2 (CYP1A2): < 10 % positive control
- additional finding in triple combination study [4]: reversible intestinal epithelial degeneration
- AST increased ([5]; human, in vivo): 3%
- TEAEs mild to moderate in severity (Grade 1/Grade 2) ([5]; human, in vivo): 90%
- abdominal pain ([5]; human, in vivo): 3%
- abdominal pain upper ([5]; human, in vivo): 3%
- diarrhea, most common TEAEs ([5]; human, in vivo): 68%
- disease progression ([5]; human, in vivo): 8%
- dose-limiting toxicities (DLTs) ([5]; human, in vivo): without any dose-limiting toxicities
- dyspnea ([5]; human, in vivo): 3%
- emergent or cumulative toxicity and/or declining tolerability ([5]; human, in vivo): No evidence of emergent or cumulative toxicity and/or declining tolerability
- fatigue ([5]; human, in vivo): 3%
- fatigue, most common TEAEs ([5]; human, in vivo): 47%
- hyponatremia ([5]; human, in vivo): 4%
- infection ([5]; human, in vivo): 4%
- lymphocyte count decreased ([5]; human, in vivo): 5%
- nausea ([5]; human, in vivo): 3%
- nausea, most common TEAEs ([5]; human, in vivo): 66%
- neutropenia ([5]; human, in vivo): 8%
- pleural effusion ([5]; human, in vivo): 3%
- rash maculo-papular ([5]; human, in vivo): 3%
- recommended monotherapy dose ([5]; human, in vivo): 800 mg/day
- subjects with at least one SRA737-related event ([5]; human, in vivo): 91%
- tolerability of 800 mg once daily ([5]; human, in vivo): overall better tolerated than 1000 mg
- vomiting, most common TEAEs ([5]; human, in vivo): 51%
- subjects experiencing DLTs ([5]; human, in vivo, 28 days): 3 subjects
- maximum tolerated dose (MTD) ([5]; monotherapy): 1000 mg/day
- recommended dose for expansion cohorts (RP2D) ([5]; monotherapy): 800 mg QD
- relatedness of Grade 5 TEAEs ([5]; monotherapy): none were considered related to SRA737
- subjects with treatment-emergent adverse events (TEAEs) ([5]; monotherapy): 106 (99%) n (%)
- maximum tolerated dose (MTD) ([5]; monotherapy, once daily): 1000 mg QD
- maximum tolerated dose (MTD) ([5]; monotherapy, twice daily): 500 mg BID
- number of Grade 5 TEAEs ([5]; monotherapy, up to 30-days post last treatment): Six
